Experimental data as given in patent US6656492B2, “Quick disintegrating tablet in buccal cavity and manufacturing method thereof” (Yamanouchi Pharmaceutical Co., Ltd., priority 2000, dated 2003).
Counter-ions that a name gives are not always drawn.

Experiment: Fluidity evaluation: angle of repose determination (fixed base cone method)
Type: physicochemical
Details: for fluidity (judgement in words): fixed base cone method
Text: The term “fluidity” in the present Specification means adhesion and cohesion between particles or adhesion of a particle with a solid wall surface. Said “fluidity” can be put into numerical terms by, for instance, methods of determining the angle of repose of a powder. Methods of determining the angle of repose are known to those in the field, but the fixed base cone method by funnel is an example (for instance, “Yakuzaigaku,” Ryuichi Arita, Hitoshi Sezaki, editors (Kodansha Scientific), p. 182). […] R. L. Jr., Chemical Engineering, Jan. 18, p. 166, Table II, 1965).
[Fluidity evaluation: angle of repose determination] A funnel for pouring powder is placed above a table for determination of the angle of repose. The angle formed by the surface of a layer of accumulated powder and a horizontal plane when the powder is poured so that none remains in the funnel is determined and this angle (°) serves as the angle of repose.

SMILES	fluidity (judgement in words)	angle of repose (determination performed with a vibrator) [°]
NC(N)=Nc1nc(CSCCC(N)=NS(N)(=O)=O)cs1 [famotidine undiluted powder, famotidine]	extremely inferior fluidity	–
O=C([O-])[O-].[Ca+2] [calcium carbonate undiluted powder, calcium carbonate]	fluidity was not good	50
Nc1c(Br)cc(Br)cc1CN[C@H]1CC[C@H](O)CC1 [amboxol hydrochloride, ambroxol hydrochloride]	could not be fed by funnel even using the vibrator	–
